Article PMC5400251, “Effect of quinoline based 1,2,3-triazole and its structural analogues on growth and virulence attributes of Candida albicans” (PLoS ONE, 2017)
Converted amounts (≈) assume the structure as drawn.

Columns and labels:
C. albicans = experiment: Disk diffusion assay, appearance of zones (strains not distinguished); format: cell-based
Description: Disk diffusion assay was performed using C. albicans ATCC 90028 (standard), the two clinical isolates, C. albicans D27 (FLC-susceptible), and C. albicans D15.9 (FLC-resistant) for the lead inhibitors 3a and 3b. The C. albicans cells were inoculated into liquid SD medium and grown over night at 37°C. The cells were then centrifuged at 3000 rpm for 5 min, washed three times with PBS and then suspended in PBS again. Approximately, 10^5 cells/mL were inoculated into molten SD agar medium at 42°C and poured into 100-mm-diameter petriplates. Sterilized 4 mm disks of Whatman paper were placed on solid agar and 1, 2, and 4 μL of 3a and 2, 4, and 8 μL of 3b from the stock solution of 10 mg/mL were spotted on the disk. […] The diameter of zone of inhibition (ZOI) was recorded in millimetres after 48 h and was compared with that of control. This experiment was repeated thrice and values were shown in terms of mean ±standard error of mean.

C. albicans ATCC 90028 = experiment: Transmission electron microscopic analysis of morphology; format: cell-based; conditions: MIC, 1 h exposure
Description: The morphology of C. albicans ATCC 90028 was analyzed using TEM following the standard protocol. […] Cells were then washed thrice with phosphate buffer solution to remove the residual medium and fixed overnight in 2.5% glutaraldehyde in phosphate/magnesium buffer (40 mM K2HPO4/KH2PO4, pH 6.5–0.5 mM MgCl2). Cells were washed twice for 15 min in 0.1 M sodium phosphate buffer (pH 6.0) and post-fixed for 2 h in 2% osmium tetroxide. Cells were again washed twice for 15 min in distilled water and then en bloc stained with 1% uranyl acetate (aqueous) for 30 min. After two further washes, cells were dehydrated in 95% and 100% ethanol. Cells were then exposed to propylene oxide for 2×10 min and infiltrated for 1 h in 1:1 propylene/epoxy embedding material (Epon) mixture and then overnight in fresh Epon. After polymerization for 48 h at 60°C, ultrathin sections were cut using a microtome (LeicaEM UC6) and transferred to a copper grid. Samples were stained with uranyl acetate (saturated solution of uranyl acetate in 50% alcohol) followed by lead citrate. Samples were washed three times in Milli-Q (MQ) water and dried by touching Whatman filter paper. Sections were examined with a FEI Tecnai G^2 TF20 transmission electron microscope at 200 KV.

[1] = molecular target: T1, plasma membrane H+ ATPase (Candida albicans, UniProt P28877); experiment: Proton extrusion measurement (H+ efflux); format: cell-based, C. albicans ATCC 90028
T1 construct: endogenous in cells; host or cells: C. albicans ATCC 90028; clinical isolates C. albicans D27 (FLC-susceptible) and D15.9 (FLC-resistant); mid-log phase whole cells
Description: (§1) The proton pumping activity of C. albicans was determined by monitoring acidification of external medium by measuring pH as describe earlier. In brief, the mid-log phase cells were harvested from SD medium by centrifugation at 3000 rpm for 15 min which is followed by three washings with phosphate buffer saline (PBS). A solution containing 0.1 M KCl and 0.1 mM CaCl2 in distilled water was prepared. Compounds 3a and 3b at the concentrations of 50 and 100 μg/mL were separately added in this solution. […] Initial pH was adjusted to 7.0 using 0.01 M HCl/NaOH. Approximately 0.2 g of cells were suspended in each set of solution. Suspension was kept in a double-jacketed glass container with constant stirring. Again, the pH of suspension was maintained as 7.0 for 1 min by using 0.01 N NaOH. The rate of H^+ extrusion was then monitored and calculated from the volume of 0.01 N NaOH consumed per min per mg weight of cells. Glucose has been reported as the stimulator of proton extrusion pump. Therefore above experiment was also repeated in the presence of 5 mM of glucose.

C. glabrata ATCC 90030 = experiment: Broth dilution IC50 determination; format: cell-based; conditions: Nakaseomyces glabratus, ATCC90030, SD broth, 37°C, 24 h, OD 600 nm, read-out: Anti-Candida Activity (IC50± S.D.) C. glabrata ATCC90030
Description: (§2) Broth dilution technique was employed to determine the IC50 values of all the synthesized 1,2,3 triazole derivatives (3a-c) against C. albicans ATCC 90028, C. glabrata ATCC 90030, C. tropicalis ATCC 750 and four clinical isolates of C. albicans namely D27, D31, D39 (FLC-sensitive) and D15.9 (FLC-resistant). The strains were maintained on yeast extract:peptone:dextrose ([…]) nutrient agar (2.5%) slants at 4°C. The test compounds were dissolved in DMSO with less than 4% concentration of it in the final test volume. Different concentrations (1000… 7.8 μg/mL) of test compounds in Sabouraud dextrose (SD) broth medium were dispensed into the wells, then inoculated with the test organism with approx. 2.5 × 10^3 cells/mL and incubated at 37°C for 24 h. After incubation period, the optical density was measured at 600 nm by using Thermo Scientific Multiskan Go plate reader. […] All the experiments were done in triplicate at separate times.

[2] = system: C. albicans D31 (FLC-sensitive clinical isolate); experiment: Broth dilution IC50 determination; format: cell-based; conditions: Candida albicans, 24 h; read-out: Anti-Candida Activity (IC50± S.D.) C. albicans D31
Description: as §2

[3] = system: C. albicans D39 (FLC-sensitive clinical isolate); experiment: Broth dilution IC50 determination; format: cell-based; conditions: Candida albicans, 24 h; read-out: Anti-Candida Activity (IC50± S.D.) C. albicans D39
Description: as §2

C. tropicalis ATCC 750 = experiment: Broth dilution IC50 determination; format: cell-based; conditions: Candida tropicalis, ATCC750, SD broth, 37°C, 24 h, OD 600 nm, read-out: Anti-Candida Activity (IC50± S.D.) C. tropicalis ATCC750
Description: as §2

[4] = system: C. albicans D27 (FLC-sensitive clinical isolate); experiment: Broth dilution IC50 determination; format: cell-based; conditions: Candida albicans, 24 h; read-out: Anti-Candida Activity (IC50± S.D.) C. albicans D27
Description: as §2

ergosterol biosynthesis [5] = experiment: Ergosterol estimation assay
[6] = molecular target: T1, plasma membrane H+ ATPase; experiment: cell-based; set-up: species or system C. albicans D15.9 (FLC-resistant); conditions: for inhibition at 100 µg/mL: read-out: Inhibition of H+ extrusion
Description: as §1

ergosterol biosynthesis [7] = experiment: Ergosterol estimation assay; remark: listed apart in the source
[8] = 50 μg/mL in presence of glucose (5 mM)
[9] = 100 μg/mL in presence of glucose (5 mM)
[10] = 100 μg/mL, no glucose, read-out: Inhibition of H+ extrusion
[11] = in the presence of glucose (5 mM), 100 μg/mL, read-out: Inhibition of H+ extrusion rate

T1 sequence (P28877 whole entry): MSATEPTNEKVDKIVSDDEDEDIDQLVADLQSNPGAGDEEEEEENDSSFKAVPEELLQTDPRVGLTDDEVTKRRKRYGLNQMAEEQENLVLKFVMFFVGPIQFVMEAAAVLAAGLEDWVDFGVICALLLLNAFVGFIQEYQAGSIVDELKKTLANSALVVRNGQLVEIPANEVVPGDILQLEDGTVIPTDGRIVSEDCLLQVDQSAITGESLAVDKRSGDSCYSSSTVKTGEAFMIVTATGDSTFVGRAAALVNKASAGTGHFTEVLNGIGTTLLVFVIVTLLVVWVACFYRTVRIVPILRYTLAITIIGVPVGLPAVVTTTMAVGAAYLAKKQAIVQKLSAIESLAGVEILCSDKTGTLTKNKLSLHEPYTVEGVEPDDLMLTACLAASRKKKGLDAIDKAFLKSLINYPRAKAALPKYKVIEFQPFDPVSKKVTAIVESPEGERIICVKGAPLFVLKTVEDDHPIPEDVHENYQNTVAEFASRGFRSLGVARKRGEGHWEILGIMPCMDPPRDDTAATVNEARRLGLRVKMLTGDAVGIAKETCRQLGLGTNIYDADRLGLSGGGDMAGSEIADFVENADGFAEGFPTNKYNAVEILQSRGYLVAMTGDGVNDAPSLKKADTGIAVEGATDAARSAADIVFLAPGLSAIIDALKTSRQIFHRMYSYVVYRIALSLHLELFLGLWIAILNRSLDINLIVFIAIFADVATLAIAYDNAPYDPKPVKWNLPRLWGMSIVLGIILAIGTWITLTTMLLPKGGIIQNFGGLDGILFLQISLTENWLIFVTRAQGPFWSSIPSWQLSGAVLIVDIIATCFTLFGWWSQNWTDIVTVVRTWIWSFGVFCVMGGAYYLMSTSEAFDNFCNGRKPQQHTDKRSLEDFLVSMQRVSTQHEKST

## Clc1ccc(OCc2cn(Cc3ccccc3)nn2)c2ncccc12 [Compound 3b, 8-((1-Benzyl-1H-1,2,3-triazol-4-yl)methoxy)-5-chloroquinoline]
C. albicans
  Appearance of zone around disks (clear = fungicidal nature, turbid = fungistatic nature): turbid
C. albicans ATCC 90028
  Cell morphology by TEM: several deformations
[1]; [8]
  Range of relative H+ efflux rate: 23.30 ± 1.1 ×10^−6 mol min^−1 mg cells^−1
[1]; 50 μg/mL, no glucose
  Range of relative H+ efflux rate: 23.40 ± 1.1 ×10^−6 mol min^−1 mg cells^−1
[1]; [9]
  Range of relative H+ efflux rate: 20.00 ± 1.0 ×10^−6 mol min^−1 mg cells^−1
[1]; 100 μg/mL, no glucose
  Range of relative H+ efflux rate: 19.30 ± 0.9 ×10^−6 mol min^−1 mg cells^−1
[1]; [10]
  inhibition at 100 µg/mL: 47%
[1]; [11]
  inhibition at 100 µg/mL: 64%
C. glabrata ATCC 90030
  IC50: 73.3 ± 1.41 µg/mL (≈ 209 µM)
[2]
  IC50: 41.5 ± 1.24 µg/mL (≈ 118 µM)
[3]
  IC50: 47.1 ± 0.39 µg/mL (≈ 134 µM)
C. tropicalis ATCC 750
  IC50: 23.6 ± 0.83 µg/mL (≈ 67.3 µM)
[4]
  IC50: 33.7 ± 1.51 µg/mL (≈ 96.1 µM)
Ergosterol biosynthesis [5]; at MIC, 16 h
  Decrease in total ergosterol content: 100%
Ergosterol biosynthesis [5]; at MIC/2, 16 h
  Decrease in total ergosterol content: 98%
Ergosterol biosynthesis [5]; at MIC/4, 16 h
  Mean decrease in total ergosterol content: 23%
[6]; [8]
  Range of relative H+ efflux rate: 25.00 ± 1.2 ×10^−6 mol min^−1 mg cells^−1
[6]; 50 μg/mL, no glucose
  Range of relative H+ efflux rate: 18.30 ± 0.9 ×10^−6 mol min^−1 mg cells^−1
[6]; [9]
  Range of relative H+ efflux rate: 21.00 ± 1.0 ×10^−6 mol min^−1 mg cells^−1
[6]; 100 μg/mL, no glucose
  Range of relative H+ efflux rate: 16.00 ± 0.8 ×10^−6 mol min^−1 mg cells^−1
[6]
  inhibition at 100 µg/mL: 42%
Ergosterol biosynthesis [7]; above MIC/2, 16 h
  Mean decrease in total ergosterol content: 100%
Ergosterol biosynthesis [7]; at MIC/4, 16 h
  Mean decrease in total ergosterol content: 33%

## c1ccc(Cn2cc(COc3cccc4cccnc34)nn2)cc1 [Compound 3a]
C. albicans
  Appearance of zone around disks (clear = fungicidal nature, turbid = fungistatic nature): clear
C. albicans ATCC 90028
  Cell morphology by TEM: several deformations
[1]; [8]
  Range of relative H+ efflux rate: 33.40 ± 1.6 ×10^−6 mol min^−1 mg cells^−1
[1]; 50 μg/mL, no glucose
  Range of relative H+ efflux rate: 19.60 ± 0.9 ×10^−6 mol min^−1 mg cells^−1
[1]; [9]
  Range of relative H+ efflux rate: 26.60 ± 1.3 ×10^−6 mol min^−1 mg cells^−1
[1]; 100 μg/mL, no glucose
  Range of relative H+ efflux rate: 11.00 ± 0.5 ×10^−6 mol min^−1 mg cells^−1
[1]; [10]
  inhibition at 100 µg/mL: 70%
[1]; [11]
  inhibition at 100 µg/mL: 52%
C. glabrata ATCC 90030
  IC50: 12.02 ± 0.02 µg/mL (≈ 38 µM)
[2]
  IC50: 3.3 ± 0.065 µg/mL (≈ 10.4 µM)
[3]
  IC50: 4.1 ± 0.02 µg/mL (≈ 13 µM)
C. tropicalis ATCC 750
  IC50: 3.6 ± 0.07 µg/mL (≈ 11.4 µM)
[4]
  IC50: 1.9 ± 0.09 µg/mL (≈ 6.01 µM)
Ergosterol biosynthesis [5]; above MIC/2, 16 h
  Mean decrease in total ergosterol content: 100%
Ergosterol biosynthesis [5]; at MIC/4, 16 h
  Mean decrease in total ergosterol content: 30%
[6]; [8]
  Range of relative H+ efflux rate: 28.30 ± 1.4 ×10^−6 mol min^−1 mg cells^−1
[6]; 50 μg/mL, no glucose
  Range of relative H+ efflux rate: 21.60 ± 1.0 ×10^−6 mol min^−1 mg cells^−1
[6]; [9]
  Range of relative H+ efflux rate: 20.00 ± 1.0 ×10^−6 mol min^−1 mg cells^−1
[6]; 100 μg/mL, no glucose
  Range of relative H+ efflux rate: 16.70 ± 0.8 ×10^−6 mol min^−1 mg cells^−1
[6]
  inhibition at 100 µg/mL: 40%
Ergosterol biosynthesis [7]; above MIC/2, 16 h
  Mean decrease in total ergosterol content: 100%
Ergosterol biosynthesis [7]; at MIC/4, 16 h
  Mean decrease in total ergosterol content: 48%
